# Results reported in ChEMBL document CHEMBL5244250, “Natural sesquiterpenoid oligomers: A chemical perspective” (Eur J Med Chem, 2020).
# Columns and labels:
# RAW264.7 [1] = experiment: Anti-inflammatory activity in LPS induced mouse RAW264.7 cells assessed as inhibition of NO production by MTT method; assay type: functional, cell-based
# CCRF-CEM = experiment: Cytotoxicity against human CCRF-CEM cells; assay type: functional, cell-based
# L1210 = experiment: Cytotoxicity against mouse L1210 cells assessed as reduction in cell viability; assay type: functional, cell-based
# KB = experiment: Cytotoxicity against human KB cells assessed as reduction in cell viability; assay type: functional, cell-based
# Plasmodium falciparum = experiment: Antiplasmodial activity against Plasmodium falciparum; assay type: functional, organism-based
# HeLa = experiment: Cytotoxicity against human HeLa cells incubated for 48 hrs by WST-8 assay; assay type: functional, cell-based
# HL-60 [2] = experiment: Cytotoxicity against human HL-60 cells incubated for 48 hrs by WST-8 assay; assay type: functional, cell-based; details: HL-60, 48 h
# B16-F10 = experiment: Cytotoxicity against mouse B16-F10 cells incubated for 48 hrs by WST-8 assay; assay type: functional, cell-based; details: B16-F10, 48 h
# RAW264.7 [3] = experiment: Anti-inflammatory activity in LPS induced mouse RAW264.7 cells assessed as inhibition of NO production measured after 24 hrs by CCK-8 method; assay type: functional, cell-based; details: RAW264.7, 24 h
# A549 = experiment: Cytotoxicity against human A549 cells incubated for 72 hrs by CCK8 assay; assay type: functional, cell-based; details: A549, 72 h
# HL-60 [4] = experiment: Cytotoxicity against human HL-60 cells incubated for 72 hrs by CCK8 assay; assay type: functional, cell-based; details: HL-60, 72 h
# HT-29 = experiment: Cytotoxicity against human HT-29 cells incubated for 72 hrs by CCK8 assay; assay type: functional, cell-based; details: HT-29, 72 h
# Bel-7402 = experiment: Cytotoxicity against human Bel-7402 cells incubated for 72 hrs by CCK8 assay; assay type: functional, cell-based; details: Bel-7402, 72 h
structure (smiles),measurement,setting,value
C=C1CC[C@H]2C(=C)CC[C@@H]3[C@H](OC(=O)[C@]3(CC(C)=O)C[C@@H]3C(=O)O[C@@H]4/C=C(/C)CC/C=C(/C)CC[C@@H]34)[C@@H]12,IC50,RAW264.7 [1],1880 nM
C=C1C(=O)O[C@H]2C[C@H](C)C3=C(C[C@H]12)[C@@]1(C)C[C@@H]3C[C@@]12C(=O)O[C@H]1C=C(C)[C@H]3CC[C@@](C)(O)[C@@H]3C[C@@H]12,IC50,CCRF-CEM,2030 nM
C=C1CCC[C@]2(C)CC[C@@H](C(C)C)[C@H](NC(=O)N(CC(=O)O)[C@@H]3[C@H]4C(=C)CCC[C@]4(C)CC[C@H]3C(C)C)[C@@H]12,IC50,L1210,2.6 µg/mL
same,IC50,KB,2.6 µg/mL
C/C=C(\C)C(=O)O[C@@H]1CC([C@H](O)[C@]2(C)C=C3OC(=O)C4=C3[C@H]2[C@H]2OC(=O)[C@H](C)[C@@H]2[C@H](OC(=O)/C(C)=C/C)C4)=C2C(=O)C=C(C)[C@@H]2[C@H]2OC(=O)[C@H](C)[C@@H]21,IC50,Plasmodium falciparum,2000 nM
C=C1C(=O)O[C@H]2C[C@H](C)[C@@]34C[C@@H](C[C@@]35C(=O)O[C@@H]3C[C@@]6(C)[C@@H](O)C[C@@H](O)C(=C)[C@@H]6C[C@@H]35)C(C)=C4C[C@H]12,IC50,CCRF-CEM,140 nM
C=C1C(=O)O[C@H]2C[C@H](C)C3=C(C[C@H]12)[C@@]1(C)C[C@H]3C[C@@]12C(=O)O[C@@H]1C[C@@]3(C)[C@@H](O)C[C@@H](O)C(=C)[C@@H]3C[C@@H]12,IC50,CCRF-CEM,140 nM
C=C1C(=O)O[C@@H]2/C=C(\C)CC/C=C(/C(=O)OC)[C@H](OCC)[C@@H](OC(=O)[C@](C)(O)[C@H](C)OC(=O)/C3=C/CC/C(C)=C/[C@H]4OC(=O)C(=C)[C@@H]4[C@H](OC(=O)/C(C)=C\C)C3)[C@@H]12,IC50,HeLa,200 nM
same,IC50,HL-60 [2],200 nM
same,IC50,B16-F10,200 nM
C=C1C(=O)O[C@H]2[C@H]1[C@H](OC(=O)[C@](C)(O)[C@H](C)OC(=O)/C1=C/CC/C(C)=C/[C@H]3OC(=O)C(=C)[C@@H]3[C@H](OC(=O)/C(C)=C\C)C1)[C@@H](OCC)/C(C(=O)OC)=C\CC[C@]1(C)O[C@@H]21,IC50,HeLa,200 nM
same,IC50,HL-60 [2],200 nM
same,IC50,B16-F10,200 nM
C=C1CC[C@H]2C(=C)CC[C@@H]3[C@H](OC(=O)[C@H]3C[C@@]3(CC(C)=O)C(=O)O[C@@H]4C/C(C)=C\CC/C=C(/C)C[C@H]43)[C@@H]12,IC50,RAW264.7 [1],4890 nM
C=C1CCC[C@]2(C)CC[C@@H](C(C)C)[C@H](NC(=O)NC(C)(C)[C@@H]3C=C4[C@@H](C)CCC[C@]4(C)CC3)[C@@H]12,IC50,L1210,2.6 µg/mL
same,IC50,KB,2.6 µg/mL
C=C1C(=O)O[C@H]2C[C@H](C)C3=C(C[C@H]12)[C@@]1(C)C[C@@H]3C[C@@]12C(=O)O[C@@H]1C[C@@]3(C)[C@@H](O)C[C@@H](O)C(=C)[C@@H]3C[C@@H]12,IC50,CCRF-CEM,140 nM
C=C1C(=O)O[C@H]2C[C@H](C)[C@@]34C[C@@H](C[C@@]35C(=O)O[C@H]3C=C(C)[C@H]6CC[C@@](C)(O)[C@@H]6C[C@@H]35)C(C)=C4C[C@H]12,IC50,CCRF-CEM,2030 nM
C=C1C(=O)O[C@H]2C[C@@H](C)C3=C(C[C@H]12)[C@@]1(C)C[C@@H]3C[C@@]12C(=O)O[C@@H]1C[C@@]3(C)[C@@H](O)C[C@@H](O)C(=C)[C@@H]3C[C@@H]12,IC50,CCRF-CEM,140 nM
C=C1C(=O)O[C@H]2[C@@H]1CCC1=C(C)[C@H]3CC1(C[C@@]31C(=O)O[C@H]3C[C@H](C)[C@@]45C[C@@]6(C(=O)O[C@@H]7C[C@H](C)C(CCC(C)=O)=CC[C@@H]76)[C@@H](C(C)=C4C[C@@H]31)C5OC(C)=O)[C@H]2C (stereo not given in full),IC50,RAW264.7 [3],1900 nM
C=C1CC[C@H]2C(=C)C(=O)O[C@@H]2[C@@H]2[C@H]1[C@@H](C[C@@H]1C(=O)C3C4[C@H]1[C@H]1OC(=O)C(=C)[C@@H]1CC[C@@]4(O)CC[C@]31C(=O)C[C@H]3C(=C)CC[C@H]4C(=C)C(=O)O[C@@H]4[C@H]31)C(=O)[C@@]2(O)CC[C@@H]1C(=O)C[C@H]2C(=C)CC[C@H]3C(=C)C(=O)O[C@@H]3[C@@H]12 (stereo not given in full),IC50,A549,2000 nM
same,IC50,HL-60 [4],2000 nM
same,IC50,HT-29,2000 nM
same,IC50,Bel-7402,2000 nM
C=C1C(=O)O[C@H]2C[C@H](C)C3=C(C[C@H]12)[C@]1(C)C[C@@H]3C[C@@]12C(=O)O[C@@H]1C[C@@]3(C)[C@@H](O)C[C@@H](O)C(=C)[C@@H]3C[C@@H]12,IC50,CCRF-CEM,140 nM
